Measurements from the OligoGym collection.
Several values for one entry are separate records, joined by “and”; a condition that tells them apart may be missing. Equal values may be shown once. After the bases stand the sugars from the 5' end (letter, count) and the backbone: PS all phosphorothioate, else s phosphorothioate and o phosphodiester by linkage. Methylation of C is not given here. e = 2'-O-(2-methoxyethyl) (MOE); d = 2'-deoxy (DNA)

Target: DGAT2
Settings: ASO

Row | Sequence | target mRNA inhibition (HepG2, 0.12 µM) | target mRNA inhibition (HepG2, 2.5 µM) | target mRNA inhibition (HepG2, 10 µM) | target mRNA inhibition (HepG2, 20 µM)
1 | GCATGGAGCTCAGAGACTCA (sugars e3 d14 e3, PS) | 51% | – | – | –
2 | AAACCCTCGACTGAGTGTGA (sugars e5 d10 e5, PS) | 37% | – | – | –
3 | AGGACCCACTGGAGCAC (sugars e3 d10 e4, PS) | – | 42% | 93% | –
4 | CCAGGCCAAGGCTGAGTCTG (sugars e5 d10 e5, PS) | 27% | – | – | –
5 | GCAATGTTGCCATCATACTA (sugars e5 d10 e5, PS) | – | 63% | 88% | –
6 | CAGTGCCCCATCTCCCAGAC (sugars e5 d10 e5, PS) | 0% | – | – | –
7 | TATCCAAAGATATAGTTCCT (sugars e5 d10 e5, PS) | 13% | – | – | –
8 | ATGGGAATGGTATCGCACTC (sugars e5 d10 e5, PS) | – | 57% and 72% | 80% and 96% | –
9 | CCCCCACTGTCAGTCTCTCC (sugars e5 d10 e5, PS) | – | 37% | 76% | –
10 | TGGTTGCAATGTTGCCATCA (sugars e5 d10 e5, PS) | – | 94% and 78% | 94% and 93% | –
11 | GCTTCTTGGGCATCTGCTAG (sugars e5 d10 e5, PS) | – | 74% | 82% | –
12 | CAGGTACTCCCTCAACACAG (sugars e5 d10 e5, PS) | 52% | – | – | –
13 | AGGACAGAGGTTCAACATCC (sugars e5 d10 e5, PS) | 53% | – | – | –
14 | ACTCCCAGTACAAGGAAGGA (sugars e5 d10 e5, PS) | 3% | – | – | –
15 | GGATGCTGGATCCAGTGCCC (sugars e5 d10 e5, PS) | 32% | – | – | –
16 | GGACACCTGGAGCTGCGGCC (sugars e5 d10 e5, PS) | – | 35% | 73% | –
17 | CCCAACCTTTAAGGCCTATC (sugars e5 d10 e5, PS) | – | 46% | 85% | –
18 | GTGGCTCTCTAGATAGGGTG (sugars e5 d10 e5, PS) | – | 68% | 84% | –
19 | GCATTGCCACTCCCATTCTT (sugars e3 d14 e3, PS) | 85% | – | – | –
20 | GTTTCCTTTGAAATCCAATG (sugars e5 d10 e5, PS) | – | 69% and 68% | 90% and 81% | –
21 | GGCTGTCAGAGGCTACTGGC (sugars e5 d10 e5, PS) | – | 74% | 63% | –
22 | GCCAGAGTTATCCTCAATTC (sugars e5 d10 e5, PS) | – | 89% | 78% | –
23 | TAGTTCCTGGTGGTCAGCAG (sugars e5 d10 e5, PS) | 48% | – | – | –

Row | Sequence | target mRNA inhibition (HepG2, 0.12 µM) | target mRNA inhibition (HepG2, 2.5 µM) | target mRNA inhibition (HepG2, 10 µM) | target mRNA inhibition (HepG2, 20 µM)
24 | AGCCTCGGTGTCCTCTC (sugars e3 d10 e4, PS) | – | 8% | 90% | –
25 | CGGACTGAATGTCACCTCTT (sugars e5 d10 e5, PS) | – | 74% and 73% | 90% and 76% | –
26 | CGTGAGCTGGTGTTCTACAA (sugars e5 d10 e5, PS) | – | 59% | 74% | –
27 | TCCCAGACCCCTCGCGCGAC (sugars e5 d10 e5, PS) | 36% | – | – | –
28 | CGCGATTCACTGAGGAC (sugars e3 d10 e4, PS) | – | 73% and 74% | – | –
29 | TCACTTGCTTGAGGTCAGGG (sugars e5 d10 e5, PS) | – | 71% and 79% | 80% and 89% | –
30 | TATAGTTCCTGGTGGTCAGC (sugars e5 d10 e5, PS) | 56% | – | – | –
31 | AGGACCCCGGAGTAGGCGGC (sugars e2 d13 e5, PS) | 81% | – | 85% | –
32 | TTGTCCTAGTGCCCCAGGGA (sugars e5 d10 e5, PS) | – | 75% | 85% | –
33 | TTGCCACTCCCATTCTTTGA (sugars e2 d13 e5, PS) | 57% | – | – | –
34 | TGATTCTTACCTGCAATGAG (sugars e5 d10 e5, PS) | 22% | – | – | –
35 | AGCTGCAAGGATGACCTTGG (sugars e5 d10 e5, PS) | – | 52% | 34% | –
36 | GGTTGTGTGTCTTCACCAGC (sugars e2 d13 e5, PS) | 68% | – | – | –
37 | GTTGTGTGTCTTCACCAGCT (sugars e5 d10 e5, PS) | 54% and 68% | – | – | –
38 | AGCTCAGAGACTCAGCCGCA (sugars e5 d10 e5, PS) | – | 38% and 44% and 55% | 78% and 86% | 89% and 97%
39 | AGCTTGGTGAATAGCTATGT (sugars e5 d10 e5, PS) | – | 75% and 68% | 93% and 92% | –
40 | GGAGTTCTCGAATATCCCTA (sugars e5 d10 e5, PS) | – | 74% and 82% and 85% | 90% and 94% | –
41 | GGGCAGTCCTTTCCCCTGCA (sugars e5 d10 e5, PS) | 37% | – | – | –
42 | CCACCTTCCAGGGAATAAAA (sugars e5 d10 e5, PS) | 22% | – | – | –
43 | GTACTCCCTCAACACAGGCA (sugars e5 d10 e5, PS) | 72% | – | – | –
44 | GCACTCTGTGATGCTCTGGA (sugars e5 d10 e5, PS) | – | – | 90% and 84% | –
45 | TTCCATTTTTTACCCAACCT (sugars e5 d10 e5, PS) | – | 57% | 93% | –
46 | ATAACCCACAGACACCCATG (sugars e5 d10 e5, PS) | 24% | – | – | –

Row | Sequence | target mRNA inhibition (HepG2, 0.12 µM) | target mRNA inhibition (HepG2, 2.5 µM) | target mRNA inhibition (HepG2, 10 µM) | target mRNA inhibition (HepG2, 20 µM)
47 | GTTGTGTGTCTTCACCAGCT (sugars e2 d13 e5, PS) | 65% | – | – | –
48 | CTTGGAGTAGGGCACCAGCC (sugars e5 d10 e5, PS) | 35% | – | – | –
49 | TATTTCTGGAACTTCTTCTG (sugars e5 d10 e5, PS) | 22% | – | – | –
50 | CACCAGCCAAGTGAAGTAGA (sugars e5 d10 e5, PS) | 23% | – | – | –
51 | AGTTCCTGGTGGTCAGCAGG (sugars e5 d10 e5, PS) | 58% | – | – | –
52 | GCCAGTGTAGCCAGGTAAGG (sugars e5 d10 e5, PS) | 9% | – | – | –
53 | GTTTTGGGAACTCATGCATT (sugars e5 d10 e5, PS) | 50% | – | – | –
54 | GGTCTGGGAACAGCAGC (sugars e3 d10 e4, PS) | – | 72% and 76% | 79% and 82% | –
55 | CTCAGTTCTTCCAACCAGTG (sugars e5 d10 e5, PS) | – | 83% and 68% | 93% and 91% | –
56 | ACTGGTGCCTAAGAGCCCTA (sugars e5 d10 e5, PS) | – | 77% | 94% | –
57 | GGGCACCAGCCCCCAGGTGT (sugars e5 d10 e5, PS) | 34% | – | – | –
58 | GGCAGGGCTTAGAATGGCTA (sugars e5 d10 e5, PS) | 48% | – | – | –
59 | GCTCATGAGAAGCTTAGAAG (sugars e5 d10 e5, PS) | – | 66% | 86% | –
60 | AGTTTCCTTTGAAATCCAAT (sugars e5 d10 e5, PS) | – | 65% | 88% | –
61 | TTCTTCTGGACCCATCGGCC (sugars e5 d10 e5, PS) | 44% | – | – | –
62 | ACTATCACACCACCTCCCAC (sugars e5 d10 e5, PS) | – | 2% | 62% | –
63 | GGCCAAGGCTGAGTCTGTGC (sugars e5 d10 e5, PS) | 17% | – | – | –
64 | CTCTCATTTCTTATCTTCAA (sugars e5 d10 e5, PS) | – | 70% | 93% | –
65 | CCCAGGAGCCCTCCTCGAAG (sugars e5 d10 e5, PS) | 54% | – | – | –
66 | GCTTACCAACAGTGGTGATG (sugars e5 d10 e5, PS) | 21% | – | – | –
67 | TGGAACTTCTTCTGGACCCA (sugars e5 d10 e5, PS) | 43% | – | – | –
68 | GAGCACAGCGATGAGCCAGC (sugars e5 d10 e5, PS) | – | 43% | 91% | –
69 | GGTAAGTCCTGATGATCCCC (sugars e5 d10 e5, PS) | – | 86% and 74% | 94% and 95% | –

Row | Sequence | target mRNA inhibition (HepG2, 0.12 µM) | target mRNA inhibition (HepG2, 2.5 µM) | target mRNA inhibition (HepG2, 10 µM) | target mRNA inhibition (HepG2, 20 µM)
70 | GCTAAGGAAAACTTAGGCAT (sugars e5 d10 e5, PS) | – | 56% | 89% and 85% | –
71 | CAAATCTGTGTGACCTTGGG (sugars e5 d10 e5, PS) | – | 65% | 93% | –
72 | GCAGGTTGTGTGTCTTCACC (sugars e5 d10 e5, PS) | 65% and 73% | – | – | –
73 | TGAGTAAGGGTATTCTGCTC (sugars e5 d10 e5, PS) | – | 80% and 72% | 93% and 91% | –
74 | CAGCGATGAGCCAGCAA (sugars e3 d10 e4, PS) | – | 35% | 88% | –
75 | AACTGAGATCTCCAGCAGCA (sugars e5 d10 e5, PS) | – | 91% and 78% | 94% and 96% | –
76 | TCCCCAATATCATACTATCT (sugars e5 d10 e5, PS) | – | 50% | 88% | –
77 | AGCTGCTTTTCCACCTTGGA (sugars e2 d16 e2, PS) | 45% | – | – | –
78 | AGCACTGAGATGACCTGTAG (sugars e5 d10 e5, PS) | 36% | – | – | –
79 | AGTAAGGGTATTCTGCTCAT (sugars e5 d10 e5, PS) | – | 87% | 77% | –
80 | AATGCCAATGCCTAGGT (sugars e3 d10 e4, PS) | – | 70% and 69% | 81% and 82% | –
81 | CTCTCCAACTCCTCCCCTTG (sugars e5 d10 e5, PS) | 25% | – | – | –
82 | CGCAGGACCCCGGAGTAGGC (sugars e3 d14 e3, PS) | 65% | – | – | –
83 | GCTGGATGGGAAAGTAGTCT (sugars e5 d10 e5, PS) | 22% | – | – | –
84 | GCACATCTCTTCCATCTCCA (sugars e5 d10 e5, PS) | – | 74% | 92% | –
85 | AGCCAGGTAAGGCCGTATGC (sugars e3 d14 e3, PS) | 51% | – | – | –
86 | GTGAAGTTCTATCCCTTGGC (sugars e5 d10 e5, PS) | – | 58% and 71% | 91% and 93% | –
87 | ACTGAGATCTCCAGCAGCAA (sugars e5 d10 e5, PS) | – | 50% and 61% and 56% | 90% and 93% and 92% | –
88 | AGGATGAACTAAATCCACCA (sugars e5 d10 e5, PS) | – | 62% | 90% | –
89 | AGCACTTGATCTGGGACCCA (sugars e5 d10 e5, PS) | – | 65% | 94% | –
90 | GCTCAGAGACTCAGCCGCAC (sugars e2 d13 e5, PS) | 82% | 13% | 35% | 66%
